In one series the test system is Human KB cells. The series is described as follows: Cytotoxicity, MTT method. To be noted: 72 h, 3 days at 37° C., read-out: IC50 (concentration at which the number of cells was decreased by 50%). It is filed as cell-based. The procedure:
Human KB cells were spread in a proportion of 1×10^5 cells/well on a 96-well plate. After a compound according to the present invention was dissolved in purified water, the solution was diluted to various concentrations with an RPMI 1640 medium and then added to each well, thereby conducting culture. After incubating at 37° C. for 3 days in a 5% CO2-incubator, the number of cells was counted by an MTT method.
The cytotoxicity of each of the compounds tested was expressed by a concentration (IC50) of the compound at which the number of cells was decreased by 50% compared with a control.
A general note: Tetrazolium dyes change colour on reduction, which living cells bring about.

The test system of series [1] is Murine Leukemia P388 cells. The series is described as follows: Survival effect against murine leukemia P388. To be noted: P388 implanted i.p. in female CDFI mice. The class given is in vivo. As to the method: Survival effect against murine leukemia P388:
Murine Leukemia P388 cells (1×10^6 cells) were implanted intraperitoneally in three female CDFI mice (aged 8 weeks) per group. On the day subsequent to the implantation and the fifth day, test compounds at varied concentrations were administered intraperitoneally to their corresponding groups of mice. Average survival days of each group were determined to find a survival rate (T/C, %) in accordance with the following equation.

The mark [2] stands for this setting: dose 1 mg/kg i.p. on day 1 and day 5.
The mark [3] stands for this setting: dose 3 mg/kg i.p. on day 1 and day 5.

In brackets after ≈: the same amount, converted by molar mass. Where a name gives a salt, the structure may show the parent alone.

The term melting point denotes the temperature of the solid-liquid transition. The compound `CC#C[C@@]1(O)[C@@H](CO)O[C@@H](n2ccc(N)nc2=O)[C@@H]1O` (as salt: salt) [Compound 18, 1-(3-C-(1-propynyl)-β-D-ribofuranosyl)cytosine] registered a melting point of 162 to 165 °C.
On the same count and under the same terms, under `CCC#C[C@@]1(O)[C@@H](CO)O[C@@H](n2ccc(N)nc2=O)[C@@H]1O` (as salt: salt) [Compound 20, 1-(3-C-(1-butynyl)-β-D-ribofuranosyl) cytosine] stands 181 to 184 °C.
Take `CC[C@@]1(O)[C@@H](CO)O[C@@H](n2ccc(=O)[nH]c2=O)[C@@H]1O` [Comparative compound 1, 1-(3-C-ethyl-β-D-ribofuranosyl)uracil, reference compound]: the IC50 with Human KB cells was greater than 100000 ng/mL.
`C#C[C@@]1(O)[C@@H](CO)O[C@@H](n2ccc(N)nc2=O)[C@@H]1O` [Compound 2, 1-(3-C-ethynyl-β-D-ribofuranosyl) cytosine]: the “survival rate T/C (%)” value in series [1] (setting [2]) turned out to be 211%; in series [1] (setting [3]) it was 206%.
Take `C#C[C@@]1(O)[C@@H](CO)O[C@@H](n2cc(F)c(N)nc2=O)[C@@H]1O` [Compound 4, 1-(3-C-ethynyl-β-D-ribofuranosyl)-5-fluorocytosine]: the melting point is 242 °C (dec.).
As for `C#C[C@@]1(O)[C@@H](CO)O[C@@H](n2ccc(=O)[nH]c2=O)[C@@H]1O` [Compound 7, 1-(3-C-ethynyl-β-D-ribofuranosyl) uracil], the “survival rate T/C (%)” value in series [1] (setting [2]) stood at 144%; in series [1] (setting [3]), 150%. Besides, the IC50 in the series on Human KB cells came out at 7.7 ng/mL (≈ 0.0287 µM).
For `C#C[C@@]1(O)[C@@H](CO)O[C@@H](n2c(=O)cc[nH]c2=O)[C@@H]1O` [Compound 8, 3-(3-C-ethynyl-β-D-ribofuranosyl) uracil], the melting point is 255 °C (dec.).
`C#C[C@@]1(O)[C@@H](CO)O[C@@H](n2cc(C)c(=O)[nH]c2=O)[C@@H]1O` [Compound 12, 1-(3-C-ethynyl-β-D-ribofuranosyl) thymine] yielded a melting point of 113 to 118 °C.
Take `C#C[C@@]1(O)[C@@H](CO)O[C@@H](n2cnc3c(=O)[nH]c(N)nc32)[C@@H]1O` [Compound 16, 9-(3-C-ethynyl-β-D-ribofuranosyl) guanine]: the melting point was 225 °C (dec.).
The same measure, in the same setting: next, `C=C[C@@]1(O)[C@@H](CO)O[C@@H](n2ccc(N)nc2=O)[C@@H]1O` [Compound 22, 1-(3-C-ethenyl-β-D-ribofuranosyl) cytosine]: 194 to 197 °C; `CC#C[C@@]1(O)[C@@H](CO)O[C@@H](n2ccc(=O)[nH]c2=O)[C@@H]1O` [Compound 24, 1-(3-C-(1-propynyl)-β-D-ribofuranosyl)uracil]: 211 to 213 °C.
Same read-out and setting: next, `CCC#C[C@@]1(O)[C@@H](CO)O[C@@H](n2ccc(=O)[nH]c2=O)[C@@H]1O` [Compound 26, 1-(3-C-(1-butynyl)-β-D-ribofuranosyl) uracil]: 139 to 142 °C; `C=C[C@@]1(O)[C@@H](CO)O[C@@H](n2ccc(=O)[nH]c2=O)[C@@H]1O` [Compound 28, 1-(3-C-ethenyl-β-D-ribofuranosyl) uracil]: 219 to 222 °C.
Compound `C[Si](C)(C)C#C[C@@]1(O)[C@@H](CO)O[C@@H](n2ccc(=O)[nH]c2=O)[C@@H]1O` [Compound 35, 1-(3-C-trimethylsilylethynyl-β-D-ribofuranosyl)uracil] had a melting point of 175 to 177 °C. In addition, the IC50 in the series on Human KB cells was 7.8 ng/mL (≈ 0.0229 µM).
